Data taken from US20050288371A1, “Treatment of neuropathic pain, fibromyalgia or rheumatoid arthritis” (H. Lundbeck A/S, priority 2004, published 2005).

Assays:
[1] = background statement on known drugs; cited from earlier work
formalin pain model = assay type: in vivo; conditions: s.c. test drug 30 min or 2 h before the test
Text: The formalin pain model is a well-established animal model of persistent somatic pain (Dubuisson, D. and Dennis, S. G. Pain 4, 1977, 161-174). It has been described as a model of clinical inflammatory pain (Tjølsen, A. and Hole, K, In: Dickenson, A. H. and Besson, J.-M. R., Editors, 1997, The Pharmacology of Pain, Springer-Verlag, Berlin, 1-20). Formalin injected subcutaneously in a hind paw produces initially a local stimulation of the nociceptors; this is referred to as phase 1. This is followed by inflammatory processes and nerve sensitization (phase 2). The latter phase models the neuropathic pain condition. A number of drugs are active in the model, e.g. morphine and in particular antiepileptic drugs (e.g. gabapentin, lamotrigine, carbamazepine) that have shown beneficial effects in clinical neuropathic states. However, these treatments are accompanied by troublesome side effects. The non-steroid antiinflammatory drugs (NSAIDs) that are used for treatment of inflammatory processes in tissue and have relatively weak effects on neuropathic pain conditions have weak activity in the formalin model.
Fifty microliters of 2.5% formalin were administered subcutaneously (s.c.) into the plantar region of the right hind-paw. […] The total time the animal spent licking, biting or shaking the injected paw was recorded. […]

NC(=O)N1c2ccccc2C=Cc2ccccc21 [carbamazepine]
activity in the formalin model [1]: active

NCC1(CC(=O)O)CCCCC1 [gabapentin]
activity in the formalin model [1]: active

Oc1noc2c1CCNC2 [gaboxadol]
inhibition of the pain response in phase 1 (formalin pain model; phase 1 (0-5 min after formalin injection)): potent and dose dependent inhibition of the pain response in phase 1
inhibition of the pain response in phase 2 (formalin pain model; phase 2 (20-30 min after formalin injection)): potently inhibited the pain response in phase 2, in a dose dependent manner

Nc1nnc(-c2cccc(Cl)c2Cl)c(N)n1 [lamotrigine]
activity in the formalin model [1]: active

CN1CC[C@]23c4c5ccc(O)c4O[C@H]2[C@@H](O)C=C[C@H]3[C@H]1C5 [morphine]
activity in the formalin model [1]: active
